In US7554012B2, “Plants and plant cells exhibiting resistance to AMPA, and methods for making the same” (priority 1998, dated 2009):
Values joined by “and” are separate entries in the source; they are usually repeats but may differ in a detail not shown here. Identical values can stand only once.

Legend:
E. coli JM101 = test: Cell growth in MOPS medium with AMPA; type: cell-based; set-up: key: — indicates no measurable growth; settings: 0.2 mM AMPA, growth period 54 hrs
Experimental: The phn operon is induced when E. coli is grown in media lacking or limited in a phosphate source. Therefore, E. coli GB993 was compared to the parental JM101 strain when grown in MOPS minimal media. GB993 and its mpu− parent strain, JM101, were grown under identical conditions, varying only the amount of phosphate available or supplemented with AMPA. 50 ml cultures were grown in duplicate in 250 ml sidearm-Erlenmeyer flasks with continuous shaking at 37° C. in MOPS medium (5 mls of 10×MOPS salts, 0.5 ml 1 mg/ml thiamin, 0.5 ml 20% glucose, to 50 mls with dH2O) containing 0.1 or 5 mM phosphate, or 0.1 mM phosphate supplemented with approximately 0.2 mM AMPA, pH 7.0. The cultures were generally grown to about 220 Klett units and the cells were pelleted by centrifugation, resuspended in 1.5 mls of 10 mM Tris/1 mM DTT, and lysed with two passes through a French press at […]. Lysates were centrifuged to remove debris and the supernatant passed through a G-50 column equilibrated with 50 mM Tris pH 7.0.

Tobacco callus = Tobacco callus growth on plates with AMPA or N-acetyl AMPA; type: cell-based, Nicotiana tabacum cv. "Samsun"; settings: plates with 0.1 mM or 0.4 mM, up to three weeks
Experimental: Tobacco callus was generated from leaf pieces of wild type Nicotiana tabacum cv. “Samsun” tobacco on MS104 plates (MS salts 4.3 g/l, sucrose 30 g/l, B5 vitamins 500X 2 ml/l, NAA 0.1 mg/l, and Bacto Agar […]). Callus tissue was applied to plates with or without AMPA and with or without N-acetyl AMPA. Plates contained AMPA or N-acetyl AMPA at concentrations of 0.1 mM or 0.4 mM. Plates were incubated for up to three weeks and monitored periodically.

[1] = [^14C]-glyphosate in growth medium exposed to light
Experimental: Growth medium to which [^14C]-glyphosate was added was treated to the same conditions as wheat plants, ie, the medium was exposed to incident light intensities which plants received.

[2] = system: R2 glyphosate tolerant wheat plants; test: [^14C]-glyphosate metabolism in wheat plants; type: in vivo, Triticum aestivum cv Bobwhite
Experimental: R2 seed was germinated from a number of different glyphosate tolerant lines to produce R2 glyphosate tolerant plants to which [^14C]-glyphosate was applied as described above. Plant leaf and stem tissues were harvested at 48 hours after glyphosate application, and water soluble compounds were extracted as described above and analyzed by HPLC as in example 2 for the presence of [^14C]-glyphosate metabolites. The total area under the [^14C] isotope labeled peaks eluting from the column was summed to provide a baseline of 100% [^14C]-compound identification for each sample analyzed.

[3] = EPSPS + PhnO + GOX, Plant Line 25462
[4] = EPSPS + PhnO + GOX, Plant Line 26281
[5] = EPSPS + PhnO + GOX, Plant Line 28598
[6] = non-recombinant Bobwhite plants

NCP(=O)(O)O [AMPA, N-aminomethyl phosphonic acid]
Harvest Density (E. coli JM101): — | growth of tobacco callus tissue (Tobacco callus): severely inhibited

N-phosphono-methyl-glycine [Glyphosate]
Acetyl-[^14C]-AMPA, of summed [^14C] peaks [1]: 2% and 0% and 0.2% | [^14C]-Glyphosate, of summed [^14C] peaks ([1]; same light exposure as plants): 48% and 87% and 60% | Acetyl-[^14C]-AMPA, of summed [^14C] peaks [2, 3]: 0% | [^14C]-Glyphosate, of summed [^14C] peaks [2, 3]: 48% and 44% and 54% | Acetyl-[^14C]-AMPA, of summed [^14C] peaks [2, 4]: 17% and 13% and 7% | [^14C]-AMPA, of summed [^14C] peaks [2, 4]: 14% and 11% and 7% | [^14C]-Glyphosate, of summed [^14C] peaks [2, 4]: 48% and 64% and 38% | [^14C]-Glyphosate, of summed [^14C] peaks ([2]; EPSPS + PhnO + GOX, Plant Line 27249): 6% and 14% and 5% | Acetyl-[^14C]-AMPA, of summed [^14C] peaks [2, 5]: 5% | [^14C]-AMPA, of summed [^14C] peaks [2, 5]: 7% | [^14C]-Glyphosate, of summed [^14C] peaks [2, 5]: 20% and 25% | [^14C]-Other, of summed [^14C] peaks [2, 5]: 68% and 63% | Acetyl-[^14C]-AMPA, of summed [^14C] peaks ([2]; EPSPS, Plant Line 24756): 1% and 0% | [^14C]-AMPA, of summed [^14C] peaks ([2]; EPSPS, Plant Line 24756): 25% and 46% | [^14C]-Glyphosate, of summed [^14C] peaks ([2]; EPSPS, Plant Line 24756, 48 hours after application): 43% and 53% | Acetyl-[^14C]-AMPA, of summed [^14C] peaks ([2]; EPSPS, Plant Line 25397): 0% and 1.2% | [^14C]-AMPA, of summed [^14C] peaks ([2]; EPSPS, Plant Line 25397): 38% and 19% and 20% | [^14C]-Glyphosate, of summed [^14C] peaks ([2]; EPSPS, Plant Line 25397): 61% and 37% and 64% | Acetyl-[^14C]-AMPA, of summed [^14C] peaks [2, 6]: 0% | [^14C]-AMPA, of summed [^14C] peaks [2, 6]: 26% and 15% and 24%
